Numbers after ± are expanded uncertainties.
Test: xn = mol fraction of the nth substance listed
Details: 100.5 kPa, Liquid; for viscosity: Capillary tube (Ostwald / Ubbelohde) method

CC(=O)OCc1ccccc1 [benzyl ethanoate] + CCO
Details	mass density, 288.15 K [kg/m3]	mass density, 298.15 K [kg/m3]	mass density, 308.15 K [kg/m3]	mass density, 318.15 K [kg/m3]	viscosity, 288.15 K [mPa·s]	viscosity, 298.15 K [mPa·s]	viscosity, 308.15 K [mPa·s]	viscosity, 318.15 K [mPa·s]
x1 = 0.05	825.52 ± 0.4	816.73 ± 0.41	807.83 ± 0.43	798.78 ± 0.44	1.317 ± 0.014	1.089 ± 0.013	0.91 ± 0.013	0.766 ± 0.013
x1 = 0.1	852.86 ± 0.36	843.91 ± 0.38	834.85 ± 0.39	825.63 ± 0.4	1.328 ± 0.014	1.098 ± 0.014	0.92 ± 0.013	0.779 ± 0.013
x1 = 0.15	876.56 ± 0.33	867.47 ± 0.34	858.28 ± 0.36	848.94 ± 0.37	1.357 ± 0.014	1.123 ± 0.014	0.942 ± 0.013	0.796 ± 0.013
x1 = 0.2	897.58 ± 0.3	888.4 ± 0.32	879.1 ± 0.33	869.66 ± 0.34	1.393 ± 0.014	1.154 ± 0.014	0.967 ± 0.013	0.821 ± 0.013
x1 = 0.25	916.18 ± 0.28	906.92 ± 0.3	897.57 ± 0.31	888.07 ± 0.32	1.439 ± 0.014	1.191 ± 0.014	0.998 ± 0.013	0.846 ± 0.013
x1 = 0.3	932.86 ± 0.26	923.54 ± 0.28	914.12 ± 0.29	904.56 ± 0.3	1.489 ± 0.015	1.231 ± 0.014	1.031 ± 0.013	0.875 ± 0.013
x1 = 0.35	947.82 ± 0.25	938.44 ± 0.26	928.98 ± 0.27	919.38 ± 0.29	1.543 ± 0.015	1.274 ± 0.014	1.067 ± 0.013	0.906 ± 0.013
x1 = 0.4	961.41 ± 0.24	952 ± 0.25	942.5 ± 0.26	932.88 ± 0.27	1.601 ± 0.015	1.319 ± 0.014	1.104 ± 0.014	0.937 ± 0.013
x1 = 0.45	973.74 ± 0.23	964.29 ± 0.24	954.76 ± 0.25	945.12 ± 0.26	1.661 ± 0.015	1.365 ± 0.014	1.142 ± 0.014	0.971 ± 0.013
x1 = 0.5	984.92 ± 0.22	975.44 ± 0.23	965.91 ± 0.24	956.27 ± 0.25	1.724 ± 0.015	1.413 ± 0.014	1.182 ± 0.014	1.005 ± 0.013
x1 = 0.55	995.2 ± 0.21	985.72 ± 0.22	976.17 ± 0.23	966.52 ± 0.24	1.789 ± 0.016	1.465 ± 0.015	1.223 ± 0.014	1.04 ± 0.013
x1 = 0.6	1004.68 ± 0.21	995.21 ± 0.21	985.66 ± 0.22	976.03 ± 0.22	1.859 ± 0.016	1.518 ± 0.015	1.268 ± 0.014	1.077 ± 0.014
x1 = 0.65	1013.4 ± 0.22	1003.92 ± 0.21	994.38 ± 0.21	984.76 ± 0.22	1.929 ± 0.016	1.571 ± 0.015	1.312 ± 0.014	1.116 ± 0.014
x1 = 0.7	1021.55 ± 0.23	1012.1 ± 0.22	1002.56 ± 0.21	992.96 ± 0.21	2.003 ± 0.016	1.629 ± 0.015	1.36 ± 0.014	1.156 ± 0.014
x1 = 0.75	1029.05 ± 0.24	1019.58 ± 0.23	1010.07 ± 0.22	1000.51 ± 0.21	2.081 ± 0.017	1.691 ± 0.015	1.409 ± 0.014	1.197 ± 0.014
x1 = 0.8	1036.05 ± 0.25	1026.61 ± 0.24	1017.13 ± 0.23	1007.6 ± 0.22	2.163 ± 0.017	1.76 ± 0.016	1.463 ± 0.015	1.241 ± 0.014
x1 = 0.85	1042.59 ± 0.27	1033.16 ± 0.26	1023.71 ± 0.24	1014.22 ± 0.23	2.249 ± 0.017	1.83 ± 0.016	1.524 ± 0.015	1.289 ± 0.014
x1 = 0.9	1048.78 ± 0.28	1039.39 ± 0.27	1029.98 ± 0.26	1020.53 ± 0.25	2.339 ± 0.018	1.906 ± 0.016	1.588 ± 0.015	1.341 ± 0.014
x1 = 0.95	1054.57 ± 0.29	1045.21 ± 0.28	1035.84 ± 0.27	1026.44 ± 0.26	2.44 ± 0.018	1.987 ± 0.016	1.652 ± 0.015	1.392 ± 0.014
x1 = 1	1060.11 ± 0.31	1050.75 ± 0.29	1041.39 ± 0.28	1032.03 ± 0.27	2.53 ± 0.018	2.056 ± 0.017	1.703 ± 0.015	1.432 ± 0.015

CCC(=O)OCc1ccccc1 [benzyl propanoate] + CCO
Details	mass density, 288.15 K [kg/m3]	mass density, 298.15 K [kg/m3]	mass density, 308.15 K [kg/m3]	mass density, 318.15 K [kg/m3]	viscosity, 288.15 K [mPa·s]	viscosity, 298.15 K [mPa·s]	viscosity, 308.15 K [mPa·s]	viscosity, 318.15 K [mPa·s]
x1 = 0.05	825.63 ± 0.4	816.86 ± 0.42	807.99 ± 0.43	798.97 ± 0.44	1.352 ± 0.014	1.115 ± 0.014	0.929 ± 0.013	0.777 ± 0.013
x1 = 0.1	852.43 ± 0.36	843.5 ± 0.38	834.48 ± 0.39	825.3 ± 0.41	1.379 ± 0.014	1.14 ± 0.014	0.949 ± 0.013	0.795 ± 0.013
x1 = 0.15	875.21 ± 0.33	866.17 ± 0.35	857.03 ± 0.36	847.75 ± 0.38	1.42 ± 0.014	1.173 ± 0.014	0.976 ± 0.013	0.819 ± 0.013
x1 = 0.2	894.95 ± 0.31	885.82 ± 0.32	876.6 ± 0.34	867.25 ± 0.35	1.466 ± 0.014	1.211 ± 0.014	1.009 ± 0.013	0.848 ± 0.013
x1 = 0.25	912.16 ± 0.29	902.96 ± 0.31	893.68 ± 0.32	884.27 ± 0.33	1.516 ± 0.015	1.253 ± 0.014	1.044 ± 0.013	0.879 ± 0.013
x1 = 0.3	927.38 ± 0.28	918.13 ± 0.29	908.8 ± 0.3	899.34 ± 0.32	1.571 ± 0.015	1.298 ± 0.014	1.084 ± 0.014	0.913 ± 0.013
x1 = 0.35	940.83 ± 0.27	931.54 ± 0.28	922.17 ± 0.29	912.69 ± 0.3	1.631 ± 0.015	1.348 ± 0.014	1.127 ± 0.014	0.95 ± 0.013
x1 = 0.4	952.87 ± 0.26	943.55 ± 0.27	934.16 ± 0.28	924.65 ± 0.29	1.694 ± 0.015	1.401 ± 0.014	1.171 ± 0.014	0.988 ± 0.013
x1 = 0.45	963.72 ± 0.26	954.39 ± 0.27	944.97 ± 0.28	935.46 ± 0.29	1.757 ± 0.015	1.454 ± 0.015	1.217 ± 0.014	1.027 ± 0.013
x1 = 0.5	973.57 ± 0.26	964.22 ± 0.26	954.79 ± 0.27	945.28 ± 0.28	1.821 ± 0.016	1.509 ± 0.015	1.263 ± 0.014	1.067 ± 0.014
x1 = 0.55	982.43 ± 0.25	973.07 ± 0.26	963.63 ± 0.27	954.12 ± 0.28	1.886 ± 0.016	1.564 ± 0.015	1.31 ± 0.014	1.107 ± 0.014
x1 = 0.6	990.54 ± 0.25	981.17 ± 0.26	971.74 ± 0.27	962.24 ± 0.27	1.952 ± 0.016	1.621 ± 0.015	1.358 ± 0.014	1.148 ± 0.014
x1 = 0.65	997.98 ± 0.26	988.61 ± 0.26	979.19 ± 0.27	969.71 ± 0.27	2.019 ± 0.017	1.678 ± 0.015	1.407 ± 0.015	1.19 ± 0.014
x1 = 0.7	1004.81 ± 0.27	995.44 ± 0.27	986.04 ± 0.27	976.58 ± 0.28	2.088 ± 0.017	1.737 ± 0.016	1.457 ± 0.015	1.233 ± 0.014
x1 = 0.75	1011.09 ± 0.28	1001.73 ± 0.27	992.35 ± 0.28	982.93 ± 0.28	2.158 ± 0.017	1.797 ± 0.016	1.509 ± 0.015	1.278 ± 0.014
x1 = 0.8	1016.98 ± 0.3	1007.63 ± 0.29	998.28 ± 0.28	988.88 ± 0.29	2.23 ± 0.018	1.858 ± 0.016	1.562 ± 0.015	1.323 ± 0.014
x1 = 0.85	1022.5 ± 0.31	1013.15 ± 0.31	1003.82 ± 0.3	994.46 ± 0.3	2.305 ± 0.018	1.921 ± 0.017	1.617 ± 0.015	1.37 ± 0.015
x1 = 0.9	1027.59 ± 0.33	1018.25 ± 0.32	1008.96 ± 0.31	999.64 ± 0.31	2.383 ± 0.018	1.986 ± 0.017	1.674 ± 0.016	1.419 ± 0.015
x1 = 0.95	1032.37 ± 0.35	1023.06 ± 0.34	1013.8 ± 0.33	1004.53 ± 0.32	2.463 ± 0.019	2.053 ± 0.017	1.729 ± 0.016	1.468 ± 0.015
x1 = 1	1036.86 ± 0.36	1027.6 ± 0.35	1018.38 ± 0.34	1009.15 ± 0.34	2.55 ± 0.019	2.123 ± 0.018	1.787 ± 0.016	1.515 ± 0.015

— the NIST ThermoML archive (doi:10.1021/je050402s)
